# System: recombinant NL-Rluc virus
# Experiment: Inhibition of HIV replication (NL-RLuc virus in MT-2 cells, luciferase readout)
# Type: cell-based
# Settings: 5 days of incubation, 10% FBS
# [1] = Human immunodeficiency virus 1, MT2, 120 h
SMILES,EC50 [nM],EC50 [1] [nM]
"Cc1nc2cc3nn2c(c1[C@H](OC(C)(C)C)C(=O)O)-c1ccc2c(c1)C(CCCCCc1ccccc1-c1cccc-3c1)CCO2 (single isomer, unassigned) [Example 8]",51,–
"Cc1nc2cc3nn2c(c1[C@H](OC(C)(C)C)C(=O)O)-c1ccc2c(c1)C(CCCCCc1ccccc1-c1cccc-3c1)CCO2 (single isomer, unassigned) [Example 9]",3680,–
"Cc1nc2cc3nn2c(c1[C@H](OC(C)(C)C)C(=O)O)-c1ccc2c(c1)C(CCCCc1ccccc1-c1cccc-3c1)CCO2 (single isomer, unassigned) [Example 10]",237,–
"Cc1nc2cc3nn2c(c1[C@H](OC(C)(C)C)C(=O)O)-c1ccc2c(c1)C(CCCCc1ccccc1-c1cccc-3c1)CCO2 (single isomer, unassigned) [Example 11]",1270,–
"Cc1nc2cc3nn2c(c1[C@H](OC(C)(C)C)C(=O)O)-c1ccc2c(c1)[C@H](CCCCOc1ccccc1-c1cccc-3c1)CCO2 (single isomer, unassigned) [Example 12]",–,7
"Cc1nc2cc3nn2c(c1[C@H](OC(C)(C)C)C(=O)O)-c1ccc2c(c1)[C@@H](CCCCOc1ccccc1-c1cccc-3c1)CCO2 (single isomer, unassigned) [Example 13]",–,216
"Cc1nc2cc3nn2c(c1[C@H](OC(C)(C)C)C(=O)O)-c1ccc2c(c1)[C@@H](CC=CCOc1ccccc1-c1cccc-3c1)CCO2 (single isomer, unassigned) [Example 14]",–,383
"Cc1nc2cc3nn2c(c1[C@H](OC(C)(C)C)C(=O)O)-c1ccc2c(c1)[C@H](CC=CCOc1ccccc1-c1cccc-3c1)CCO2 (single isomer, unassigned) [Example 15]",–,4
"Cc1nc2cc3nn2c(c1[C@H](OC(C)(C)C)C(=O)O)N1CCC(C)(CC1)OCC=C[C@@H](C)Oc1ccccc1-c1cccc-3c1 (single isomer, unassigned) [Example 22]",–,36
"Cc1ccc2c(c1)-c1cccc(c1)-c1cc3nc(C)c([C@H](OC(C)(C)C)C(=O)O)c(n3n1)N1CCC(C)(CC1)OCCCC(C)C(C)O2 (single isomer, unassigned) [Example 92]",968,–
"Cc1ccc2c(c1)-c1cccc(c1)-c1cc3nc(C)c([C@H](OC(C)(C)C)C(=O)O)c(n3n1)N1CCC(C)(CC1)OCCCC(C)C(C)O2 (single isomer, unassigned) [Example 93]",95,–
"Cc1ccc2c(c1)-c1cccc(c1)-c1cc3nc(C)c([C@H](OC(C)(C)C)C(=O)O)c(n3n1)N1CCC(C)(CC1)OCCCC(C)C(C)O2 (single isomer, unassigned) [Example 94]",35,–
"Cc1ccc2c(c1)-c1cccc(c1)-c1cc3nc(C)c([C@H](OC(C)(C)C)C(=O)O)c(n3n1)N1CCC(C)(CC1)OCCCC(C)C(C)O2 (single isomer, unassigned) [Example 95]",36,–
"Cc1ccc2c(c1)-c1cccc(c1)-c1cc3nc(C)c([C@H](OC(C)(C)C)C(=O)O)c(n3n1)N1CCC(C)(CC1)OCCCC(C)CO2 (single isomer, unassigned) [Example 103]",–,25
"Cc1ccc2c(c1)-c1cccc(c1)-c1cc3nc(C)c([C@H](OC(C)(C)C)C(=O)O)c(n3n1)N1CCC(C)(CC1)OCCCC(C)CO2 (single isomer, unassigned) [Example 104]",26,–
"Cc1nc2cc3nn2c(c1[C@H](OC(C)(C)C)C(=O)O)-c1ccc2c(c1Cl)N(C/C=C\CCc1cccc(c1)-c1cccc-3c1)CCO2 [Example 1, (2S)-2-(tert-Butoxy)-2-[(22Z)-32-chloro-4-methyl-28-oxa-5,7,8,25-tetraazaheptacyclo[23.6.2.1^6,^9.1^10,^14.1^15,^19.0^2,^7.0^29,^33]hexatriaconta-1(31),2,4,6(36),8,10(35), 11,13,15(34), 16,18,22,29,32-tetradecaen-3-yl]acetic acid]",–,853
"Cc1nc2cc3nn2c(c1[C@H](OC(C)(C)C)C(=O)O)-c1ccc2c(c1Cl)N(C/C=C/CCc1cccc(c1)-c1cccc-3c1)CCO2 [Example 2, (2S)-2-(tert-Butoxy)-2-[(22E)-32-chloro-4-methyl-28-oxa-5,7,8,25-tetraazaheptacyclo[23.6.2.1^6,^9.1^10,^14.1^15,^19.0^2,^7.0^29,^33]hexatriaconta-1 (31), 2,4,6(36),8,10(35), 11, 13, 15(34), 16,18,22,29,32-tetradecaen-3-yl]acetic acid]",–,722
"Cc1nc2cc3nn2c(c1[C@H](OC(C)(C)C)C(=O)O)-c1ccc2c(c1Cl)N(CCCCOc1cccc(c1)-c1cccc-3c1)CCO2 [Example 3, (2S)-2-(tert-Butoxy)-2-{32-chloro-4-methyl-20,28-dioxa-5,7,8,25-tetraazaheptacyclo[23.6.2.1^6,^9.1^10,^14.1^15,^19.0^2,^7.0^29,^33]hexatriaconta-1(31), 2,4, 6(36), 8, 10(35), 11, 13, 15 (34), 16,18,29,32-tridecaen-3-yl}acetic acid]",–,418
Cc1nc2cc3nn2c(c1[C@H](OC(C)(C)C)C(=O)O)-c1ccc2c(c1Cl)N(CC=CCCc1ccccc1-c1cccc-3c1)CCO2 [Example 4],–,125
"Cc1nc2cc3nn2c(c1[C@H](OC(C)(C)C)C(=O)O)-c1ccc2c(c1Cl)N(CCCCCCOc1ccccc1-c1cccc-3c1)CCO2 [Example 5, (2S)-2-(tert-Butoxy)-2-{35-chloro-4-methyl-21,31-dioxa-5,7,8,28-tetraazaheptacyclo[26.6.2.1^6,^9.1^10,^14.0^2,^7.0^15,^200^32,36]octatriaconta-1(34),2,4,6(38),8,10(37), 11, 13, 15 (20), 16,18,32,35-tridecaen-3-yl}acetic acid]",–,30
"Cc1nc2cc3nn2c(c1[C@H](OC(C)(C)C)C(=O)O)-c1cc2c(cc1F)OCCN2CCCCCc1ccccc1-c1cccc-3c1 [Example 6, (2S)-2-(tert-Butoxy)-2-{32-fluoro-4-methyl-29-oxa-5,7,8,26-tetraazaheptacyclo[24.6.2.1^6,^9.1^10,^14.0^2,^7.0^15,^20.0^30,^34]hexatriaconta-1(32),2,4,6(36),8,10(35), 11, 13, 15(20), 16,18,30,33-tridecaen-3-yl}acetic acid]",–,54
"Cc1cc2c3cc1-c1c([C@H](OC(C)(C)C)C(=O)O)c(C)nc4cc(nn14)-c1cccc(c1)-c1ccccc1CCCCCN3CCO2 [Example 7, (2S)-2-(tert-Butoxy)-2-{4,32-dimethyl-29-oxa-5,7,8,26-tetraazaheptacyclo[24.6.2.1^6,^9.1^10,^14.0^2,^7.0^15,^200^30,^34]hexatriaconta-1(32), 2,4,6(36),8,10(35), 11, 13, 15(20), 16,18,30,33-tridecaen-3-yl}acetic acid]",–,3510
"Cc1nc2cc3nn2c(c1[C@H](OC(C)(C)C)C(=O)O)-c1cc(F)c2c(c1)N(CCCCCc1ccccc1-c1cccc-3c1)CCO2 [Example 16, (2S)-2-(tert-Butoxy)-2-{31-fluoro-4-methyl-29-oxa-5,7,8,26-tetraazaheptacyclo[24.6.2.1^6,^9.1^10,^14.0^2,^7.0^15,^20.0^30,^34]hexatriaconta-1(32),2,4,6(36),8,10(35), 11, 13, 15(20),16,18,30,33-tridecaen-3-yl}acetic acid]",–,177
"Cc1nc2cc3nn2c(c1[C@H](OC(C)(C)C)C(=O)O)-c1ccc2c(c1Cl)N(CCCCCc1ccccc1-c1cccc-3c1)CCO2 [Example 17, (2S)-2-(tert-Butoxy)-2-{33-chloro-4-methyl-29-oxa-5,7,8,26-tetraazaheptacyclo[24.6.2.1^6,^9.1^10,^14.0^2,^7.0^15,^20.0^30,^34]hexatriaconta-1(32),2,4,6(36),8,10(35), 11,13,15(20),16,18,30,33-tridecaen-3-yl}acetic acid]",–,145
"Cc1nc2cc3nn2c(c1[C@H](OC(C)(C)C)C(=O)O)N1CCC(C)(CC1)OCC=CCCc1ccccc1-c1cccc-3c1 [Example 18, (2S)-2-(tert-Butoxy)-2-[4,27-dimethyl-26-oxa-1,5,7,8-tetraazahexacyclo[25.2.2.1^6,^9.1^10,^14.0^2,^7.0^15,^20]tritriaconta-2,4,6(33),8,10(32),11,13,15(20),16,18,23-undecaen-3-yl]acetic acid]",–,16
"Cc1nc2cc3nn2c(c1[C@H](OC(C)(C)C)C(=O)O)N1CCC(C)(CC1)OCCCCCc1ccccc1-c1cccc-3c1 [Example 19, (2S)-2-(tert-Butoxy)-2-{4,27-dimethyl-26-oxa-1,5,7,8-tetraazahexacyclo[25.2.2.1^6,^9.1^10,^14. 0^2,^7. 0^15,^20]-tritriaconta-2,4,6(33),8,10(32),11,13,15(20),16,18-decaen-3-yl}acetic acid]",–,21
"Cc1nc2cc3nn2c(c1[C@H](OC(C)(C)C)C(=O)O)N1CCC(C)(CC1)OC/C=C/COc1ccccc1-c1cccc-3c1 [Example 20, (2S)-2-(tert-Butoxy)-2-[(23E)-4,27-dimethyl-21,26-dioxa-1,5,7,8-tetraazahexacyclo[25.2.2.1^6,^9.1^10,^14.0^2,^7.0^15,^20]tritriaconta-2,4,6(33),8,10(32),11,13,15(20),16,18,23-undecaen-3-yl]acetic acid]",–,5
"Cc1nc2cc3nn2c(c1[C@H](OC(C)(C)C)C(=O)O)N1CCC(C)(CC1)OCCCCOc1ccccc1-c1cccc-3c1 [Example 21, (2S)-2-(tert-Butoxy)-2-{4,27-dimethyl-21,26-dioxa-1,5,7,8-tetraazahexacyclo[25.2.2.1^6,^9.1^10,^14.0^2,^7.0^15,^20]-tritriaconta-2,4, 6(33), 8, 10(32), 11, 13, 15(20),16,18-decaen-3-yl}acetic acid]",–,7
"Cc1nc2cc3nn2c(c1[C@H](OC(C)(C)C)C(=O)O)N1CCC(C)(CC1)OCC=C[C@H](C)Oc1ccccc1-c1cccc-3c1 [Example 23, (2S)-2-(tert-Butoxy)-2-[(22S)-4,22,27-trimethyl-21,26-dioxa-1,5,7,8-tetraazahexacyclo[25.2.2.1^6,^9.1^10,^14.0^2,^7.0^15,^20]tritriaconta-2,4,6(33),8,10(32),11,13,15(20),16,18,23-undecaen-3-yl]acetic acid]",–,11

# — patent US8906929B2, “Inhibitors of human immunodeficiency virus replication” (priority 2012, dated 2014)
